Assay results reported in patent publication US6150393A (priority 1999, dated 2000).

Legend:
[1] = Bar catalepsy test in rats (extrapyramidal side effect analysis); type: in vivo, rat (male Sprague-Dawley); conditions: same dosing parameters and protocol; n=10 per dose; data not shown
[2] = tested on: human mutated 5HT2A receptor, AP-3; test: Receptor-mediated inositol phosphate (IP3) accumulation, AP-3; type: cell-based
Protocol: On day one, 1×10^7 293 cells per 150 mm plate were plated out. On day two, two reaction tubes were prepared (the proportions to follow for each tube are per plate): tube A was prepared by mixing 20 μg DNA (e.g., pCMV vector; pCMV vector AP-1 cDNA, etc.) in 1.2 ml serum free DMEM (Irvine Scientific, Irvine, Calif.); tube B was prepared by mixing 120 μl lipofectamine (Gibco BRL) in 1.2 ml serum free DMEM. Tubes A and B were then admixed by inversions (several times), followed by incubation at room temperature for 30-45 min. The admixture is referred to as the "transfection mixture". Plated 293 cells were washed with 1×PBS, followed by addition of 10 ml serum free DMEM. 2.4 ml of the transfection mixture was then added to the cells, followed by incubation for 4 hrs at 37° C./5% CO2. On day 3, cells were trypsinized and counted, followed by plating of 1×10^6 cells/well (poly D-lysine treated 12-well plates). Cells were permitted to adhere to the wells, followed by one wash with 1×PBS. Thereafter, 0.5 μCi ^3 H-inositol in 1 ml inositol-free DMEM was added per well. Protocol B.
On day 4, the cells were washed with 0.5 ml PBS and then 0.45 ml of assay medium was added containing inositol-free/serum free media, 10 μM pargyline, 10 mM lithium chloride, or 0.4 ml of assay medium and 50 ul of 10× ketanserin (ket) to a final concentration of 10 μM. The cells were then incubated for 30 minutes at 37° C. Then the cells were washed with 0.5 ml PBS and 200 ul of fresh/ice cold stop solution (1M KOH; 18 mM Na-borate; 3.8 mM EDTA) was added/well. The solution was kept on ice for 5-10 minutes or until the cells were lysed and then neutralized by 200 μl of fresh/ice cold neutralization sol. (7.5% HCL). The lysate was then transferred into 1.5 ml microcentrifuge tubes and 1 ml of chloroform/methanol (1:2) was added/tube. The solution was vortexed for 15 seconds and the upper phase was applied to a Biorad AG1-X8 anion exchange resin (100-200 mesh). The resin was washed with water and 0.9 ml of the upper phase was loaded onto the column. The column was washed with 10 mls of 5 mM myo-inositol and 10 ml of 5 mM Na-borate/60 mM Na-formate. The inositol trisphosphates were eluted into scintillation vials containing 10 ml of scintillation cocktail with 2 ml of 0.1 M formic acid/1 M ammonium formate. The columns were regenerated by washing with 10 ml of 0.1 M formic acid/3M ammonium formate and rinsed twice with dd H2 O and stored at room temperature in water.
Candidate compound identified in the assays of Examples 9a-9c were then evaluated for inositol phosphate accumulation, following the protocol of Example 5 ([…] expressing human mutated 5HT2A receptor, AP-3), modified as follows: tube A was prepared by mixing 16 μg DNA (e.g., pCMV vector; pCMV vector AP-1 cDNA, etc.) in 1.0 ml serum free DMEM (Irvine Scientific, Irvine, Calif.); tube B was prepared by mixing 60 μl lipofectamine (Gibco BRL) in 1.0 ml serum free DMEM. Tubes A and B were then admixed by inversions (several times), followed by incubation at room temperature for 30 min. The admixture is referred to as the "transfection mixture". Plated 293 cells were washed with 10 ml Serum Free DMEM, followed by addition of 11 ml Serum Free DMEM. 2.0 ml of the transfection mixture was then added to the cells, followed by incubation for 5 hrs at 37° C./5% CO2. On day 3, cells were trypsinized and counted, followed by plating of 1×10^6 cells/well (12-well plates). Cells were permitted to adhere to the wells for 8 hrs, followed by one wash with 1×PBS. Thereafter, 0.5 μCi ^3 H-inositol in 1 ml inositol-free DMEM was added per well.
On day 4, the cells were washed with 1.5 ml PBS and then 0.9 ml of assay medium was added containing inositol-free/serum free media, 10 μM pargyline, 10 mM lithium chloride, for 5 min in 37° C./5% CO2 followed by 100 μl addition of candidate compound diluted in the same material. The cells were then incubated for 120 minutes at 37° C. […]

5HT2 receptors [3] = test: DOI inhibition study in rats, oral administration of test compound (oral availability); type: in vivo, rat
Protocol: FIG. 6 provides a graphic summary of the effects of oral administration of 116082 and 116081 in a DOI inhibition study in rats. Values represent the mean±SEMs (n=6/group). #P<0.05 vs. vehicle/vehicle, *P<0.05 vs. vehicle/DOI, Student t-test.
Based upon the in vivo data developed, oral bioavailability of compounds […] was considered. The compounds were administered by oral gavage at a dose of 50 mg/kg, 30 min prior to DOI in rats (see Example 11A, supra). Animals were placed in the locomotor activity cages 10 min after DOI administration and activity was measured for 10 min. Results, presented in FIG. 6, provide total activity counts over the 10 min of exposure to the locomotor activity apparatus.

5HT2 receptors [4] = test: DOI locomotor activity test in rats (DOI inhibition study), intraperitoneal test compound; type: in vivo, rat (male Sprague-Dawley); conditions: i.p. 30 min before DOI (0.3 mg/kg s.c.)
Protocol: (§1) FIG. 3 provides a graphic summary of dose-response results from in vivo analysis of compound 116082 in a 1-(2,5-dimethoxy-4-iodophenyl)-2-aminopropane ("DOI") inhibition study (fine movement; ambulation; and animal rearing outcome measures). 116082 was administered 30 min prior to DOI. Animals were placed in locomotor activity cages 10 min after DOI administration and activity was measured for 10 min. Results are presented as total activity counts over the 10 min of exposure to the locomotor activity apparatus.
as §1, with “FIG. 4” for “FIG. 3”, “compound 116081” for “compound 116082”, “a DOI” for “a 1-(2,5-dimethoxy-4-iodophenyl)-2-aminopropane ("DOI")”, “measures). 116081” for “measures). 116082”
Assessment of 5-HT2 receptor antagonism in vivo was made by using the DOI locomotor activity test in rats as described by Krebs-Thomson (Psychopharmacology, 140:69-74, 1998).
Motor function was assessed by using automated locomotor activity cages. The rats were placed in a standard rodent cage surrounded by photocell beams, which allow for automated recording of motor activity. […]

SMILES: Cn1cc(Br)c(-c2cccc(NC(=O)Nc3ccc(Cl)cc3)c2)n1 [Compound 116081, N-[3-(4-bromo-1-methylpyrazol-3-yl)phenyl][(4-chlorophenyl)amino]carboxamide]
- cataleptic response [1]: did not produce a cataleptic response
- IP3 % of Control ([2]; 10 μM test compound, triplicate, control without test compound): 10%
- profile in in vitro functional assays ([2]; in vitro functional assays): selective 5HT2A inverse agonist properties
- oral efficacy compared with intraperitoneal administration (5HT2 receptors [3]; 50 mg/kg oral vs 10 mg/kg i.p.): as efficacious as a 10 mg/kg dose of the same compounds administered intraperitoneally
- reversal of DOI-induced motor dysfunction, oral (5HT2 receptors [3]; oral gavage 50 mg/kg, 30 min prior to DOI): reversed DOI-induced motor dysfunction in rats
- oral activity (5HT2 receptors [3]; rat, DOI test, 50 mg/kg oral): orally active
- reversal of DOI-induced motor dysfunction (5HT2 receptors [4]): beneficially reverses DOI-induced motor dysfunction
